{"source": "PubChem BioAssay (NCI)", "assay_in_all_cases": "inhibition of tumour cell growth, NCI panel, 48 h", "key": {"KM12 colon": {"tested_on": "KM12 colon"}, "ACHN renal": {"tested_on": "ACHN renal"}, "A498 renal": {"tested_on": "A498 renal"}, "SK-MEL-28 melanoma": {"tested_on": "SK-MEL-28 melanoma"}, "786-0 renal": {"tested_on": "786-0 renal"}, "CCRF-CEM leukemia": {"tested_on": "CCRF-CEM leukemia"}, "MOLT-4 leukemia": {"tested_on": "MOLT-4 leukemia"}, "MDA-MB-231 breast": {"tested_on": "MDA-MB-231 breast"}, "MALME-3M melanoma": {"tested_on": "MALME-3M melanoma"}, "DU-145 prostate": {"tested_on": "DU-145 prostate"}, "NCI-H226 lung": {"tested_on": "NCI-H226 lung"}, "CAKI-1 renal": {"tested_on": "CAKI-1 renal"}, "IGROV1 ovarian": {"tested_on": "IGROV1 ovarian"}, "T-47D breast": {"tested_on": "T-47D breast"}, "SK-MEL-5 melanoma": {"tested_on": "SK-MEL-5 melanoma"}, "MCF7 breast": {"tested_on": "MCF7 breast"}, "HS 578T breast": {"tested_on": "HS 578T breast"}, "HCT-15 colon": {"tested_on": "HCT-15 colon"}, "SK-MEL-2 melanoma": {"tested_on": "SK-MEL-2 melanoma"}, "RXF 393 renal": {"tested_on": "RXF 393 renal"}, "UACC-62 melanoma": {"tested_on": "UACC-62 melanoma"}, "NCI-H522 lung": {"tested_on": "NCI-H522 lung"}, "M14 melanoma": {"tested_on": "M14 melanoma"}, "COLO 205 colon": {"tested_on": "COLO 205 colon"}, "SF-268 CNS": {"tested_on": "SF-268 CNS"}, "BT-549 breast": {"tested_on": "BT-549 breast"}, "TK-10 renal": {"tested_on": "TK-10 renal"}, "OVCAR-5 ovarian": {"tested_on": "OVCAR-5 ovarian"}}, "note": "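Test compounds were applied to cells in 96-well plates for 48 hours at 5 doses. GI50 = concentration required for 50% inhibition of growth. TGI marks complete inhibition of growth.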", "data": [{"compound": "CN(C)CCCNc1c2ccc(Cl)cc2nc2c1oc1ccccc12", "values": [{"measurement": "GI50", "setting": "KM12 colon", "value": 2.76, "unit": "µM"}, {"measurement": "TGI", "setting": "KM12 colon", "value": 16.8, "unit": "µM"}, {"measurement": "GI50", "setting": "ACHN renal", "value": 1.78, "unit": "µM"}, {"measurement": "TGI", "setting": "ACHN renal", "value": 12.2, "unit": "µM"}, {"measurement": "GI50", "setting": "A498 renal", "value": 7.55, "unit": "µM"}, {"measurement": "TGI", "setting": "A498 renal", "value": 21.2, "unit": "µM"}, {"measurement": "GI50", "setting": "SK-MEL-28 melanoma", "value": 4.43, "unit": "µM"}, {"measurement": "TGI", "setting": "SK-MEL-28 melanoma", "value": 16.3, "unit": "µM"}, {"measurement": "GI50", "setting": "786-0 renal", "value": 3.2, "unit": "µM"}, {"measurement": "TGI", "setting": "786-0 renal", "value": 14.2, "unit": "µM"}, {"measurement": "GI50", "setting": "CCRF-CEM leukemia", "value": 2.57, "unit": "µM"}, {"measurement": "TGI", "setting": "CCRF-CEM leukemia", "value": 10.3, "unit": "µM"}, {"measurement": "GI50", "setting": "MOLT-4 leukemia", "value": 0.676, "unit": "µM"}, {"measurement": "TGI", "setting": "MOLT-4 leukemia", "value": 13.2, "unit": "µM"}, {"measurement": "GI50", "setting": "MDA-MB-231 breast", "value": 2.44, "unit": "µM"}, {"measurement": "TGI", "setting": "MDA-MB-231 breast", "value": 8.61, "unit": "µM"}, {"measurement": "GI50", "setting": "MALME-3M melanoma", "value": 3.1, "unit": "µM"}, {"measurement": "TGI", "setting": "MALME-3M melanoma", "value": 10.6, "unit": "µM"}, {"measurement": "GI50", "setting": "DU-145 prostate", "value": 3.49, "unit": "µM"}, {"measurement": "TGI", "setting": "DU-145 prostate", "value": 79.2, "unit": "µM"}, {"measurement": "GI50", "setting": "NCI-H226 lung", "value": 3.19, "unit": "µM"}, {"measurement": "TGI", "setting": "NCI-H226 lung", "value": 11.9, "unit": "µM"}, {"measurement": "GI50", "setting": "CAKI-1 renal", "value": 1.59, "unit": "µM"}, {"measurement": "TGI", "setting": "CAKI-1 renal", "value": 4.39, "unit": "µM"}, {"measurement": "GI50", "setting": "IGROV1 ovarian", "value": 2.77, "unit": "µM"}, {"measurement": "TGI", "setting": "IGROV1 ovarian", "value": 7.49, "unit": "µM"}, {"measurement": "GI50", "setting": "T-47D breast", "value": 4.84, "unit": "µM"}, {"measurement": "TGI", "setting": "T-47D breast", "value": 23.2, "unit": "µM"}, {"measurement": "GI50", "setting": "SK-MEL-5 melanoma", "value": 10.6, "unit": "µM"}, {"measurement": "TGI", "setting": "SK-MEL-5 melanoma", "value": 23.8, "unit": "µM"}, {"measurement": "GI50", "setting": "MCF7 breast", "value": 1.77, "unit": "µM"}, {"measurement": "TGI", "setting": "MCF7 breast", "value": 6.02, "unit": "µM"}, {"measurement": "GI50", "setting": "HS 578T breast", "value": 3.53, "unit": "µM"}, {"measurement": "TGI", "setting": "HS 578T breast", "value": 22.2, "unit": "µM"}, {"measurement": "GI50", "setting": "HCT-15 colon", "value": 2.35, "unit": "µM"}, {"measurement": "TGI", "setting": "HCT-15 colon", "value": 11.1, "unit": "µM"}, {"measurement": "GI50", "setting": "SK-MEL-2 melanoma", "value": 3.29, "unit": "µM"}, {"measurement": "TGI", "setting": "SK-MEL-2 melanoma", "value": 12.6, "unit": "µM"}, {"measurement": "GI50", "setting": "RXF 393 renal", "value": 1.64, "unit": "µM"}, {"measurement": "TGI", "setting": "RXF 393 renal", "value": 3.76, "unit": "µM"}, {"measurement": "GI50", "setting": "UACC-62 melanoma", "value": 5.2, "unit": "µM"}, {"measurement": "TGI", "setting": "UACC-62 melanoma", "value": 19.6, "unit": "µM"}, {"measurement": "GI50", "setting": "NCI-H522 lung", "value": 2.18, "unit": "µM"}, {"measurement": "TGI", "setting": "NCI-H522 lung", "value": 7.89, "unit": "µM"}, {"measurement": "GI50", "setting": "M14 melanoma", "value": 1.69, "unit": "µM"}, {"measurement": "TGI", "setting": "M14 melanoma", "value": 3.45, "unit": "µM"}, {"measurement": "GI50", "setting": "COLO 205 colon", "value": 1.51, "unit": "µM"}, {"measurement": "TGI", "setting": "COLO 205 colon", "value": 4.03, "unit": "µM"}, {"measurement": "GI50", "setting": "SF-268 CNS", "value": 2.54, "unit": "µM"}, {"measurement": "TGI", "setting": "SF-268 CNS", "value": 12.1, "unit": "µM"}, {"measurement": "GI50", "setting": "BT-549 breast", "value": 4.12, "unit": "µM"}, {"measurement": "TGI", "setting": "BT-549 breast", "value": 14.4, "unit": "µM"}, {"measurement": "GI50", "setting": "TK-10 renal", "value": 4.19, "unit": "µM"}, {"measurement": "TGI", "setting": "TK-10 renal", "value": 22.1, "unit": "µM"}, {"measurement": "GI50", "setting": "OVCAR-5 ovarian", "value": 2.46, "unit": "µM"}, {"measurement": "TGI", "setting": "OVCAR-5 ovarian", "value": 7.81, "unit": "µM"}]}]}
